{"source": "patent US20160030391A1", "about": "“METHODS AND COMPOSITIONS FOR IMPROVING COGNITIVE FUNCTION” (THE JOHNS HOPKINS UNIVERSITY, priority 2013, published 2016)", "tested_on": "aged-impaired (AI) rats", "assay": "eight-arm Radial Arm Maze task, one-hour delay, aged-impaired rats", "assay_type": "in vivo, rat", "conditions": "for average no. of errors±SEM: one-hour delay; for effective in reducing the number of errors by AI rats in the radial arm maze: levetiracetam on its own", "method": "The effects of levetiracetam on the spatial memory retention of aged-impaired (AI) rats were assessed in a Radial Arm Maze (RAM) behavioral task using vehicle control and five different dosage levels of levetiracetam (1.25 mg/kg/day, 2.5 mg/kg/day, 5 mg/kg/day, 10 mg/kg/day and 20 mg/kg/day). RAM behavioral tasks were preformed on ten AI rats. All six treatment conditions were tested on all ten rats, as described above for the MWM test. The RAM apparatus used consisted of eight equidistantly-spaced arms. An elevated maze arm (7 cm width x 75 cm length) projected from each facet of an octagonal center platform (30 cm diameter, 51.5 cm height). Clear side walls on the arms were 10 cm high and were angled at 65° to form a trough. A food well (4 cm diameter, 2 cm deep) was located at the distal end of each arm. Froot Loops™ (Kellogg Company) were used as rewards. Blocks constructed of Plexiglas™ (30 cm height x 12 cm width) could be positioned to prevent entry to any arm. Numerous extra maze cues surrounding the apparatus were also provided. The AI rats were initially subjected to a pre-training test (Chappell et al. Neuropharmacology 37: 481-487, 1998). The pre-training test consisted of a habituation phase (4 days), a training phase on the standard win-shift task (18 days) and another training phase (14 days) in which a brief delay was imposed between presentation of a subset of arms designated by the experimenter (e.g., 5 arms available and 3 arms blocked) and completion of the eight-arm win-shift task (i.e., with all eight arms available). In the habituation phase, rats were familiarized to the maze for an 8-minute session on four consecutive days. In each of these sessions food rewards were scattered on the RAM, initially on the center platform and arms and then progressively confined to the arms. After this habituation phase, a standard training protocol was used, in which a food pellet was located at the end of each arm. Rats received one trial each day for 18 days. Each daily trial terminated when all eight food pellets had been obtained or when either 16 choices were made or 15 minutes had elapsed. After completion of this training phase, a second training phase was carried out in which the memory demand was increased by imposing a brief delay during the trial. At the beginning of each trial, three arms of the eight-arm maze were blocked. Rats were allowed to obtain food on the five arms to which access was permitted during this initial ‘information phase’ of the trial. Rats were then removed from the maze for 60 seconds, during which time the barriers on the maze were removed, thus allowing access to all eight arms. Rats were then placed back onto the center platform and allowed to obtain the remaining food rewards during this ‘retention test’ phase of the trial. The identity and configuration of the blocked arms varied across trials. The number of “errors” the AI rats made during the retention test phase was tracked. An error occurred in the trial if the rats entered an arm from which food had already been retrieved in the pre-delay component of the trial, or if it re-visited an arm in the post-delay session that had already been visited. After completion of the pre-training test, rats were subjected to trials with more extended delay intervals, i.e., a one-hour delay, between the information phase (presentation with some blocked arms) and the retention test (presentation of all arms). During the delay interval, rats remained off to the side of the maze in the testing room, on carts in their individual home cages. AI rats were pretreated 30-40 minutes before daily trials with a one-time shot of the following six conditions: 1) vehicle control (0.9% saline solution); 2) levetiracetam (1.25 mg/kg/day); 3) levetiracetam (2.5 mg/kg/day); 4) levetiracetam (5 mg/kg/day); 5) levetiracetam (10 mg/kg/day); 6) levetiracetam (20 mg/kg/day); through intraperitoneal (i.p.) injection. Injections were given every other day with intervening washout days. […]"}
{"smiles": "CC[C@@H](C(N)=O)N1CCCC1=O", "note": "[levetiracetam, (2S)-2-(2-oxopyrrolidin-1-yl)butanamide]", "values": [{"measurement": "effective doses of levetiracetam used in the animal model", "setting": "given acutely, AI rats", "value": "5 to 10", "unit": "mg/kg"}, {"measurement": "average no. of errors±SEM", "setting": "levetiracetam 5 mg/kg/day i.p.", "value": "0.75±0.32"}, {"measurement": "average no. of errors±SEM", "setting": "levetiracetam 10 mg/kg/day i.p.", "value": "0.80±0.27"}, {"measurement": "performance of AI rats in the radial maze task", "setting": "levetiracetam 20 mg/kg", "value": "fails to improve the performance"}, {"measurement": "effective in reducing the number of errors by AI rats in the radial arm maze", "setting": "1.25 mg/kg", "value": "not"}, {"measurement": "effective in reducing the number of errors by AI rats in the radial arm maze", "setting": "2.5 mg/kg", "value": "not"}, {"measurement": "effective in reducing the number of errors by AI rats in the radial arm maze", "setting": "5-10 mg/kg", "value": "effective"}]}
